Measured values as given in patent US20080145858A1, “DETECTION AND IDENTIFICATION OF TOXICANTS BY MEASUREMENT OF GENE […]” (priority 2003, published 2008).

System: Xenopus laevis cleavage stage embryos (stage 8)
Experiment: Xenopus cDNA microarray, differential gene expression after PMA treatment during cleavage stage (Group I)
Assay type: in vivo
Conditions: PMA 100 ng/ml, stage 8
Excerpt: Specifically, the method and screen of the present invention function as follows. EST clones produced from Xenopus laevis unfertilized eggs were used in the present study with ˜1,200 EST clones from a 18,500 EST clone set selected for production of a Xenopus cDNA microarray. The Xenopus microarray was used to measure the effect of chemical treatment on Xenopus embryo gene regulation. The chemical treatment was a phorbol ester, PMA. Xenopus eggs were obtained from females induced for ovulation and fertilized in vitro. Control Xenopus laevis embryos were allowed to develop to stage 8 blastula or stage 15 neurula. Treated embryos were exposed to PMA during cleavage stage or during neurulation with end points of blastula (stage 8) or neurula (stage 15). Specifically, PMA 100 ng/ml was added to the incubation media during cleavage stages for evaluation in stage 8 embryo or PMA was added during neural induction for evaluation in stage 15 embryos. RNA extracted from the embryos was used to generate fluorescent cDNA probes for Xenopus microarray analyses to measure differential gene expression with and without the phorbol ester treatment. Analysis was performed using paired RNA samples to compare PMA-treated and untreated embryos: Group I measured the effects of PMA-treatment during the cleavage stage in stage 8 embryos and Group II measured the effects of PMA-treatment during neurulation in stage 15 embryos. Group III measured the change in gene expression between stage 8 and stage 15 embryos.
cDNA fragments were obtained by PCR replication of Xenopus laevis unfertilized egg cDNA inserts, purified, quantitated and loaded onto glass chips by robotics. In addition to the selected ˜1,200 genes, 64 lambda Q gene, an internal control cDNA (Genomic Solutions, Inc., Ann Arbor, Mich.) was loaded on the chip. The insert DNA from ˜1,200 clones were PCR amplified using forward and reverse primers (GF.200 primers, Research Genetics, Huntsville, Ala.). A second PCR was carried out using 1 μl of the primary PCR (20 μl) for template. Excess dNTPs, polymerase and other PCR artifacts were removed from the secondary PCR reactions using Millipore Multiscreen plates (Millipore Corporation, Bedford, Mass.) using the standard protocol. The purity of the PCR products was assessed by electrophoresis and documented using an Alphalmager 1000 Digital Imaging System (Alpha Innotech Corporation, San Leandro, Calif.). The DNA obtained by PCR was quantitated using PicoGreen (Molecular Probes, Eugene, Oreg.). The DNA was denatured and arrayed onto amino-silane coated microscope slides (CMT-GAPS coated slides, Corning, Corning, N.Y.) using a Flexys robotic workstation (Genomic Solutions Inc.). The ˜1,200 PCR products were arrayed in duplicate on each slide and cross-linked. Each gene chip contained duplicate cDNA samples.
Total RNA was prepared from embryos treated in three separate dishes per treatment group that were pooled. Total RNA was isolated from the frog embryos (1,200 embryos for each probe production) using TRIzol extraction (Gibco BRL, Grand Island, N.Y.) and Qiagen RNeasy kits (Qiagen, Valencia, Calif.). The ethanol precipitated RNA was resuspended in RNase-free water, quantitated with RiboGreen (Molecular Probes, Eugene, Oreg.). Total RNA was further purified using oligoTex mRNA maxi kit (Qiagen Co.) with the bound mRNA eluted with minimum volume of elution buffer and precipitated with ethanol. The recovery rate of mRNA by the ethanol precipitation method was ˜70%. Cy3- or Cy5-tagged probes were produced from an mRNA mixture (20 μl) of Xenopus mRNA (5 μg) and lambda Q gene mRNA (3.5 ng) reverse-transcribed with oligo(dT)18-22 primer and dNTPs and the reverse-transcribed cDNA was cross-linked with Cy3 or Cy5 as described in Clontech Atlas™ Glass Fluorescent Labeling kit manual (www.clontech.com). After hydrolysis of the RNA and purification of the probe (Centricon 50, Millipore, Bedford, Mass.), the cDNA in TE buffer was quantitated by absorbance at 260 nm. […]

CCCCCCCCCCCCCC(=O)O[C@@H]1[C@@H](C)[C@@]2(O)[C@@H](C=C(CO)C[C@]3(O)C(=O)C(C)=C[C@@H]23)[C@@H]2C(C)(C)[C@]12OC(C)=O [PMA, phorbol 12-myristate 12-acetate]
Ratio of Medians (Cy5/Cy3) Mean (PBX0138A04 mRNA): 2.99 ± 1.32 | Ratio of Medians (Cy5/Cy3) Second Spot (PBX0138A04 mRNA): 4.33 | (CY3/CY5) by Landmarks (1.6) (PBX0138C12 mRNA): 3.59 | (CY3/CY5) by all Data Points (1.3) (PBX0138C12 mRNA): 5.74 | Normalization by Landmarks (1.6) (PBX0138C12 mRNA): 0.28 | Normalization by all Data Points (1.3) (PBX0138C12 mRNA): 0.17 | Ratio of Medians (Cy5/Cy3) First Spot (PBX0138C12 mRNA): 0.14 | Ratio of Medians (Cy5/Cy3) Mean (PBX0138C12 mRNA): 0.13 ± 0.01 | Ratio of Medians (Cy5/Cy3) Second Spot (PBX0138C12 mRNA): 0.13 | Normalized by Landmarks (1.59) (PBX0138D01 mRNA): 4.45 | Normalized by all Data Points (1.28) (PBX0138D01 mRNA): 3.58 | Ratio of Medians (Cy5/Cy3) First Spot (PBX0138D01 mRNA): 3.50 | Ratio of Medians (Cy5/Cy3) Mean (PBX0138D01 mRNA): 2.80 ± 0.70 | Ratio of Medians (Cy5/Cy3) Second Spot (PBX0138D01 mRNA): 2.10 | (CY3/CY5) by Landmarks (1.6) (PBX0138E10 mRNA): 2.68 | (CY3/CY5) by all Data Points (1.3) (PBX0138E10 mRNA): 4.29 | Normalization by Landmarks (1.6) (PBX0138E10 mRNA): 0.37 | Normalization by all Data Points (1.3) (PBX0138E10 mRNA): 0.23 | Ratio of Medians (Cy5/Cy3) First Spot (PBX0138E10 mRNA): 0.15 | Ratio of Medians (Cy5/Cy3) Mean (PBX0138E10 mRNA): 0.18 ± 0.03 | Ratio of Medians (Cy5/Cy3) Second Spot (PBX0138E10 mRNA): 0.21 | (CY3/CY5) by Landmarks (1.6) (PBX0138G10 mRNA): 3.35 | (CY3/CY5) by all Data Points (1.3) (PBX0138G10 mRNA): 5.36 | Normalization by Landmarks (1.6) (PBX0138G10 mRNA): 0.30 | Normalization by all Data Points (1.3) (PBX0138G10 mRNA): 0.19 | Ratio of Medians (Cy5/Cy3) First Spot (PBX0138G10 mRNA): 0.10 | Ratio of Medians (Cy5/Cy3) Mean (PBX0138G10 mRNA): 0.14 ± 0.04 | Ratio of Medians (Cy5/Cy3) Second Spot (PBX0138G10 mRNA): 0.18 | (CY3/CY5) by Landmarks (1.6) (PBX0138G12 mRNA): 2.56 | (CY3/CY5) by all Data Points (1.3) (PBX0138G12 mRNA): 4.09 | Normalization by Landmarks (1.6) (PBX0138G12 mRNA): 0.39 | Normalization by all Data Points (1.3) (PBX0138G12 mRNA): 0.24 | Ratio of Medians (Cy5/Cy3) First Spot (PBX0138G12 mRNA): 0.17 | Ratio of Medians (Cy5/Cy3) Mean (PBX0138G12 mRNA): 0.19 ± 0.02 | Ratio of Medians (Cy5/Cy3) Second Spot (PBX0138G12 mRNA): 0.21 | Normalized by Landmarks (1.59) (PBX0139A08 mRNA): 4.21 | Normalized by all Data Points (1.28) (PBX0139A08 mRNA): 3.39 | Ratio of Medians (Cy5/Cy3) First Spot (PBX0139A08 mRNA): 2.00 | Ratio of Medians (Cy5/Cy3) Mean (PBX0139A08 mRNA): 2.65 ± 0.65 | Ratio of Medians (Cy5/Cy3) Second Spot (PBX0139A08 mRNA): 3.29 | Normalized by Landmarks (1.59) (PBX0139B06 mRNA): 5.45 | Normalized by all Data Points (1.28) (PBX0139B06 mRNA): 4.39 | Ratio of Medians (Cy5/Cy3) First Spot (PBX0139B06 mRNA): 4.00 | Ratio of Medians (Cy5/Cy3) Mean (PBX0139B06 mRNA): 3.43 ± 0.57 | Ratio of Medians (Cy5/Cy3) Second Spot (PBX0139B06 mRNA): 2.86 | (CY3/CY5) by Landmarks (1.6) (PBX0139D03 mRNA): 3.15 | (CY3/CY5) by all Data Points (1.3) (PBX0139D03 mRNA): 5.04 | Normalization by Landmarks (1.6) (PBX0139D03 mRNA): 0.32 | Normalization by all Data Points (1.3) (PBX0139D03 mRNA): 0.20 | Ratio of Medians (Cy5/Cy3) First Spot (PBX0139D03 mRNA): 0.04 | Ratio of Medians (Cy5/Cy3) Mean (PBX0139D03 mRNA): 0.15 ± 0.11 | Ratio of Medians (Cy5/Cy3) Second Spot (PBX0139D03 mRNA): 0.26 | (CY3/CY5) by Landmarks (1.6) (PBX0139F05 mRNA): 3.52 | (CY3/CY5) by all Data Points (1.3) (PBX0139F05 mRNA): 5.64 | Normalization by Landmarks (1.6) (PBX0139F05 mRNA): 0.28 | Normalization by all Data Points (1.3) (PBX0139F05 mRNA): 0.18 | Ratio of Medians (Cy5/Cy3) First Spot (PBX0139F05 mRNA): 0.15 | Ratio of Medians (Cy5/Cy3) Mean (PBX0139F05 mRNA): 0.14 ± 0.02 | Ratio of Medians (Cy5/Cy3) Second Spot (PBX0139F05 mRNA): 0.12 | (CY3/CY5) by Landmarks (1.6) (PBX0139F12 mRNA): 2.63 | (CY3/CY5) by all Data Points (1.3) (PBX0139F12 mRNA): 4.21 | Normalization by Landmarks (1.6) (PBX0139F12 mRNA): 0.38 | Normalization by all Data Points (1.3) (PBX0139F12 mRNA): 0.24 | Ratio of Medians (Cy5/Cy3) First Spot (PBX0139F12 mRNA): 0.20 | Ratio of Medians (Cy5/Cy3) Mean (PBX0139F12 mRNA): 0.18 ± 0.02 | Ratio of Medians (Cy5/Cy3) Second Spot (PBX0139F12 mRNA): 0.16 | (CY3/CY5) by Landmarks (1.6) (PBX0139H03 mRNA): 2.11 | (CY3/CY5) by all Data Points (1.3) (PBX0139H03 mRNA): 3.38 | Normalization by Landmarks (1.6) (PBX0139H03 mRNA): 0.47 | Normalization by all Data Points (1.3) (PBX0139H03 mRNA): 0.30 | Ratio of Medians (Cy5/Cy3) First Spot (PBX0139H03 mRNA): 0.26 | Ratio of Medians (Cy5/Cy3) Mean (PBX0139H03 mRNA): 0.23 ± 0.03 | Ratio of Medians (Cy5/Cy3) Second Spot (PBX0139H03 mRNA): 0.20
